Literature values, collected in patent US12605354B2, “Azelaic acid esters in the treatment or prevention of dyslipidemia and associated conditions” (NEW FRONTIER LABS, LLC, priority 2020, dated 2026).
Where two headings read alike, the source gives them in different places.

How the values were obtained:
statin-naïve individuals = settings: 1 year (T2D), reference 52, cited from earlier work; for LDL/HDL, decrease: statin-naïve individuals
[1] = system: 16 subjects with Type II diabetes; settings: cited from earlier work
[2] = system: 4750 prediabetic subjects; settings: cited from earlier work
[3] = cited from earlier work; for Hypoglycemia: reference 51
[4] = 15-year study [49]; cited from earlier work
[5] = 28-day study in 16 subjects with Type II diabetes [47]
[6] = 8 weeks (T2D risk), reference 48
[7] = meta-analysis, trials of at least 8 weeks, compared to placebo or no treatment [48]

## CN(C)C(=N)N=C(N)N [Metformin, metformin]
statin-naïve individuals
  LDL/HDL, decrease: 11.7% decrease
  HDL, increase: 5% increase
  LDL, decrease: 5.6% decrease
statin-naïve individuals; listed as metformin
  LDL/HDL, decrease: 11.7%
[1]; 4 weeks (T2D), reference 47
  Cholesterol/HDL, decrease: 9.2% decrease
[1]; [5]
  fasting glucose: reduced fasting glucose
  insulin levels: no effect on insulin levels
[2]; [6]
  Fasting insulin, decrease: 14.4% decrease
  Fasting plasma glucose, decrease: 4.5% decrease
[2]; [7]
  change of LDL: −5.6%
  change of fasting glucose: −4.5%
  change of fasting insulin: −14.4%
  increase of HDL: 5.0%
[3]; [53]
  patients who cannot tolerate metformin at all: 5%
  users with severe gastrointestinal side effects: 1 of 4
[3]; multiple studies
  Hypoglycemia: infrequent event
[3]; multiple studies, listed as metformin
  Hypoglycemia: Neither metformin nor DEA administration as presented herein induced hypoglycemia
[3]; multiple studies, reference 53
  Side effects: severe gastrointestinal effects
[4]
  reduction of the incidence of diabetes compared to placebo: 17%
